According to patent US20220007687A1, “SHELF STABLE LIQUID FLAVORED CONCENTRATE” (DreamPak LLC, priority 2020, published 2022):

Assays:
[1] = pH of acid solutions with sodium citrate buffer (Example 2); assay type: physicochemical; settings: for delta pH: buffered concentrate (Example 2) compared to concentrate without buffer (Example 1); for pH: concentrate: 22 g acid, 2 g sodium citrate, 76 ml water
Protocol: The impact of adding a buffer to solutions of lactic, citric, and malic acid is researched. With each acid, 22 g of the acid is mixed with 2 g of sodium citrate in 76 ml of water, and pH readings of the concentrates are obtained, then 2 ml of the concentrates is diluted in 250 ml of water and the resulting solutions were evaluated for taste and mouthfeel.

[2] = pH of acid solutions in water (Example 1); assay type: physicochemical; settings: 22 g acid in 78 ml water; 2 ml of the mixture diluted in 250 ml water
Protocol: The pH, taste, and mouthfeel of lactic, citric, and malic acids are compared. With each acid, 22 g of the acid is mixed in 78 ml of water, then 2 ml of the mixture is diluted in 250 ml of water, and pH readings of the diluted solutions are obtained.

| SMILES | delta pH [1] | pH [1] | pH [2] |
| --- | --- | --- | --- |
| O=C(O)CC(O)(CC(=O)O)C(=O)O [Citric Acid, citric acid] | 0.87 | 2.02 | 1.15 |
| CC(O)C(=O)O (stereo not drawn) [Lactic Acid, 2-hydroxypropionic acid] | 1.04 | 2.49 | 1.45 |
| O=C(O)CC(O)C(=O)O (stereo not drawn) [Malic Acid, malic acid] | 0.79 | 2.12 | 1.33 |
